One experiment addresses T1, human GluR1/2 receptors (Homo sapiens, UniProt P42261+P42262).
T1 construct: expressed in transfected cells; host or cells: HEK 293
Nature of the experiment: Patch-clamp of glutamate-induced membrane currents in HEK 293 cells expressing GluR1/2. It is filed as cell-based. To be noted: recombinant human GluR1/2, 1 mM glutamate for 1 s at holding potential −80 mV. Here is the method: Ionotropic glutamate receptors of the AMPA subtype are also essential for the excitatory neurotransmission. […] HEK 293 cells which expressed functionally recombinant human GluR1/2 receptors were electrophysiologically investigated by the Patch-Clamp method ([…]). The administration of 1 mM glutamate (for 1 s at a holding potential of −80 mV) induced membrane currents which were inhibited by the joint administration of ambroxol.
On the technique in general: Patch clamp records ionic current or voltage across a cell membrane.

Experiment [1] has as its system centrally expressed neuronal sodium channels. Conditions: neuronal sodium channel subtypes, Weiser and Wilson, Mol. Pharmacol. 62, 433-438, 2002, read-out: half-maximum inhibition of centrally expressed channels; cited from earlier work.

T1 sequence (P42261 19-906): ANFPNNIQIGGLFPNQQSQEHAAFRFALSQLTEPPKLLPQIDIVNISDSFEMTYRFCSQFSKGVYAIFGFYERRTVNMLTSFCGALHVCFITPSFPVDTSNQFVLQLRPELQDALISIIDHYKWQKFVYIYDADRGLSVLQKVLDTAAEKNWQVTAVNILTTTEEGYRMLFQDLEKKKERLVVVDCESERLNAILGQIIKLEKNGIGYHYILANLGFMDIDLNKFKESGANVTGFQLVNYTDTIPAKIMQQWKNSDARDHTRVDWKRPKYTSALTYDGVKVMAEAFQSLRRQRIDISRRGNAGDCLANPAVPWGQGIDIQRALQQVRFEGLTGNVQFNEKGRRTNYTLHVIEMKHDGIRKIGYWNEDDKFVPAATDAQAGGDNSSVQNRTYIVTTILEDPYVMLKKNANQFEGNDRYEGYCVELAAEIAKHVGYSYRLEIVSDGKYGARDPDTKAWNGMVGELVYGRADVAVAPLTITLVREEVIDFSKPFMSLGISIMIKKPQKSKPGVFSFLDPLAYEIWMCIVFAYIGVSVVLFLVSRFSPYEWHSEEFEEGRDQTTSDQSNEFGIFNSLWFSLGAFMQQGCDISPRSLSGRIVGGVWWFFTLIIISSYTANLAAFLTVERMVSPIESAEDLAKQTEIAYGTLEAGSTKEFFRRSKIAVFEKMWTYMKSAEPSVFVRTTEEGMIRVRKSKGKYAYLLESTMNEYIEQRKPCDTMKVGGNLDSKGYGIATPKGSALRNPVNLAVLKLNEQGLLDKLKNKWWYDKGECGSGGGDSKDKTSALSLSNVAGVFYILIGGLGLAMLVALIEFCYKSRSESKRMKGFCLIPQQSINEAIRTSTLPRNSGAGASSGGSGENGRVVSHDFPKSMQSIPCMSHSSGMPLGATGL
T1 sequence (P42262 22-883 limits assumed): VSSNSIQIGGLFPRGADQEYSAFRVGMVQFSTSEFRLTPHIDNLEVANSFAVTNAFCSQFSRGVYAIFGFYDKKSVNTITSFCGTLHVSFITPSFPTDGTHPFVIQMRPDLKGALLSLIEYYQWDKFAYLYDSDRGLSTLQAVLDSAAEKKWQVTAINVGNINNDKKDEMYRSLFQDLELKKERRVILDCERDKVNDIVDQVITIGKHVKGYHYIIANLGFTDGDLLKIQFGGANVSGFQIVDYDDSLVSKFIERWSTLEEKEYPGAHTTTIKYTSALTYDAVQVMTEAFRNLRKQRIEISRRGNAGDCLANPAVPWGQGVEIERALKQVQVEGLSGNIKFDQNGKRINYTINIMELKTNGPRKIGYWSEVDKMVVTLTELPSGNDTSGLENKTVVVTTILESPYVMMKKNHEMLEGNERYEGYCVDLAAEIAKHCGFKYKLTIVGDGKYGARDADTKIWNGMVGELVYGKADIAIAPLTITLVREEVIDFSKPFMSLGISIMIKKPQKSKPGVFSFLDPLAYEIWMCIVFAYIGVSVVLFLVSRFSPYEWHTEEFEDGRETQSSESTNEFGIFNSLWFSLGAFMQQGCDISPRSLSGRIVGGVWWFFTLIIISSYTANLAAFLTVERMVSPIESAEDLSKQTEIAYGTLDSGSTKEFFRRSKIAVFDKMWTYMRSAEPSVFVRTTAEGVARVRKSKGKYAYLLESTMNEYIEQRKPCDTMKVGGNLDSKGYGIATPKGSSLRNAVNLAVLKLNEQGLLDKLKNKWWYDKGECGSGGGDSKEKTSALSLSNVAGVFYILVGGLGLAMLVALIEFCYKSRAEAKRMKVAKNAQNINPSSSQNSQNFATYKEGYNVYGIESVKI

With `Nc1c(Br)cc(Br)cc1CN[C@H]1CC[C@H](O)CC1` [ambroxol, trans-4-(2-amino-3,5-dibromobenzylamino)cyclohexanol], at human GluR1/2 receptors, the “concentrations inhibiting glutamate-induced membrane currents” value was in the range of 30 to 1000 µM. Besides, the IC50 in experiment [1] was 111 µM.

The record behind these values is patent US20050014846A1, “Ambroxol for the treatment of tinnitus” (Boehringer Ingelheim International GmbH, priority 2003, published 2005).
